Test results as given in ChEMBL document CHEMBL1201862, “PubChem BioAssay data set” (2004).
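Cells were grown in 96-well plates and exposed to each compound for 48 hours at five concentrations; endpoints were interpolated linearly between bracketing concentrations, or set to the highest concentration if not reached. GI50: concentration for 50% inhibition of growth.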 Active and inactive are the calls of the source. Rule as the data show it: active = GI50 up to about 1.1 µM and inactive = higher.

Assays:
Experiment in all cases: NCI anticancer screen, dose series, 48 h
[1] = system: 786-0
[2] = system: A498
[3] = system: BT-549
[4] = system: EKVX
[5] = system: HCT-116
[6] = system: HCT-15
[7] = system: HOP-92
[8] = system: Hs-578T
[9] = system: K562
[10] = system: KM12
[11] = system: MCF7
[12] = system: NCI-H522
[13] = system: OVCAR-3
[14] = system: OVCAR-5
[15] = system: PC-3
[16] = system: RPMI-8226
[17] = system: RXF 393
[18] = system: SK-MEL-28
[19] = system: SNB-19
[20] = system: U-251

Row | Compound | GI50 [1] | GI50 [2] | GI50 [3] | GI50 [4] | GI50 [5] | GI50 [6] [µM] | GI50 [7] | GI50 [8] | GI50 [9] | GI50 [10] | GI50 [11] | GI50 [12] | GI50 [13] | GI50 [14] | GI50 [15] | GI50 [16] | GI50 [17] | GI50 [18] | GI50 [19] | GI50 [20]
1 | COC1C(C)OC(OC2CC(C)(O)Cc3cc4c(c(O)c32)C(=O)c2c(O)cc3c(c2C4=O)OC2OC3(C)C(O)C(N(C)C)C2O)C(OC)C1(C)OC (stereo not given) | 0.0861 µM (active) | 0.0256 µM (active) | 0.000257 µM (active) | 0.0409 µM (active) | 0.015 µM (active) | 0.00849 | 0.0333 µM (active) | 5.79e-05 µM (active) | 0.00438 µM (active) | 0.00527 µM (active) | 0.0331 µM (active) | 0.00447 µM (active) | 0.00516 µM (active) | 0.0628 µM (active) | 0.000204 µM (active) | 0.015 µM (active) | 0.00463 µM (active) | 0.00557 µM (active) | 0.00378 µM (active) | 0.00285 µM (active)
2 | O=C(NCCN1CCOCC1)c1ccc2cc(C(=O)N3CC(CCl)c4ccc([N+](=O)[O-])cc43)[nH]c2c1 (stereo not given) | 4.41 µM (inactive) | 7.03 µM (inactive) | 16.9 µM (inactive) | 16.6 µM (inactive) | 13.5 µM (inactive) | 19.1 | 8.24 µM (inactive) | 4.83 µM (inactive) | 19.4 µM (inactive) | 23.1 µM (inactive) | 17.5 µM (inactive) | 4.67 µM (inactive) | 16.9 µM (inactive) | > 100 µM (inactive) | 15 µM (inactive) | 2.43 µM (inactive) | 5.01 µM (inactive) | 6.62 µM (inactive) | 12 µM (inactive) | 9.66 µM (inactive)
3 | CN1CCc2cc(N)cc3c2C1Cc1ccc2c(c1-3)OCO2 (stereo not given) | 26.9 µM (inactive) | 49.9 µM (inactive) | 43 µM (inactive) | 50.9 µM (inactive) | 27.7 µM (inactive) | 32.3 | 17.7 µM (inactive) | 28.2 µM (inactive) | 27 µM (inactive) | 13.5 µM (inactive) | 29.4 µM (inactive) | 18.1 µM (inactive) | 27.1 µM (inactive) | 42.4 µM (inactive) | 42.7 µM (inactive) | 15.9 µM (inactive) | 27.4 µM (inactive) | 27.2 µM (inactive) | 61.8 µM (inactive) | 36.8 µM (inactive)
4 | O=NN(CCCl)C(=O)NC1CCC(=O)NC1=O (stereo not given) | 61.7 µM (inactive) | 174 µM (inactive) | 251 µM (inactive) | 415 µM (inactive) | 215 µM (inactive) | 300 | 143 µM (inactive) | 348 µM (inactive) | 153 µM (inactive) | 212 µM (inactive) | 330 µM (inactive) | 225 µM (inactive) | 818 µM (inactive) | 804 µM (inactive) | 745 µM (inactive) | 220 µM (inactive) | 232 µM (inactive) | 409 µM (inactive) | 112 µM (inactive) | 52.8 µM (inactive)
5 | O=C1C(NCCc2ccc(O)c(O)c2)=CC(=O)c2ncccc21 | 15.3 µM (inactive) | 20.7 µM (inactive) | 4.28 µM (inactive) | 17.6 µM (inactive) | 12.2 µM (inactive) | 13.4 | 20.1 µM (inactive) | 5.82 µM (inactive) | 2.42 µM (inactive) | 13.2 µM (inactive) | 4.02 µM (inactive) | 2.36 µM (inactive) | 2.06 µM (inactive) | 19.7 µM (inactive) | 21.9 µM (inactive) | 16.6 µM (inactive) | 13.8 µM (inactive) | 11.8 µM (inactive) | 18.5 µM (inactive) | 4.3 µM (inactive)
6 | COC(=O)C1SC(SC)=NC12c1ccccc1Nc1ccccc12 (stereo not given) | 35.2 µM (inactive) | 41.8 µM (inactive) | 24.7 µM (inactive) | 30.1 µM (inactive) | 31.7 µM (inactive) | 29.4 | 20.8 µM (inactive) | 31.7 µM (inactive) | 23.9 µM (inactive) | 41.7 µM (inactive) | 27.7 µM (inactive) | 19.5 µM (inactive) | 18.2 µM (inactive) | 54.8 µM (inactive) | 28.3 µM (inactive) | 21.2 µM (inactive) | 67.3 µM (inactive) | 21.1 µM (inactive) | 40.5 µM (inactive) | 25.2 µM (inactive)
7 | COc1cc(CN2CCCCC2)cc2cc(C(=O)O)c(=O)oc12 | > 100 µM (inactive) | > 100 µM (inactive) | > 100 µM (inactive) | > 100 µM (inactive) | > 100 µM (inactive) | > 100 | > 100 µM (inactive) | > 100 µM (inactive) | > 100 µM (inactive) | > 100 µM (inactive) | > 100 µM (inactive) | > 100 µM (inactive) | > 100 µM (inactive) | > 100 µM (inactive) | > 100 µM (inactive) | > 100 µM (inactive) | > 100 µM (inactive) | > 100 µM (inactive) | > 100 µM (inactive) | > 100 µM (inactive)
8 | CCCCCC(/C=C/[C@@H]1[C@@H](C(O)CCCCCC(=O)OC)C(=O)C[C@H]1O[Si](C)(C)C(C)(C)C)OCOCCOC (stereo not given in full) | 15.6 µM (inactive) | 20 µM (inactive) | 9.06 µM (inactive) | 18.8 µM (inactive) | 4.37 µM (inactive) | 7.98 | 21 µM (inactive) | 9.84 µM (inactive) | > 21 µM (inactive) | 6.62 µM (inactive) | 4.76 µM (inactive) | 3.92 µM (inactive) | 14.9 µM (inactive) | 21.1 µM (inactive) | 13.8 µM (inactive) | 2.71 µM (inactive) | 18.6 µM (inactive) | 15.3 µM (inactive) | 15.3 µM (inactive) | 7.26 µM (inactive)
9 | CC1OC(NCCNCCNC2OC(C)C(O)C(O)C2O)C(O)C(O)C1O (stereo not given) | > 100 µM (inactive) | > 100 µM (inactive) | > 100 µM (inactive) | > 100 µM (inactive) | > 100 µM (inactive) | > 100 | > 100 µM (inactive) | > 100 µM (inactive) | > 100 µM (inactive) | > 100 µM (inactive) | > 100 µM (inactive) | > 100 µM (inactive) | > 100 µM (inactive) | > 100 µM (inactive) | > 100 µM (inactive) | > 100 µM (inactive) | > 100 µM (inactive) | > 100 µM (inactive) | > 100 µM (inactive) | > 100 µM (inactive)
